Our source for the RP-LC retention time values is the METLIN SMRT retention time set (Domingo-Almenara et al. 2019).

The nature of this data set: gradient 5% acetonitrile 3 min, to 50% in 2 min, to 85% in 15 min, held 3 min, 100 µL/min. The following applies: column: Zorbax Extend-C18 2.1 x 50 mm; eluents: water / acetonitrile, 0.1% formic acid. The method, boiled down:
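Retention times of pure standards were taken from adduct peaks that were selected by computer and manually inspected. Over 3 months, mixtures of ~100 molecules were run by HPLC–quadrupole time-of-flight mass spectrometry in positive and negative ionization mode. The Zorbax Extend-C18 column (2.1 × 50 mm, 1.8 μm) ran at 100 μL/min in water and acetonitrile, each containing 0.1% formic acid, with 40 μL dead volume and 900 μL dwell volume.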
The compound `Cc1cccc(CNC(=O)c2ccc3ncnc(N4CCCC4)c3c2)c1` had an RP-LC retention time of 647 s.
`COc1cc(NS(=O)(=O)c2cn(C(C)C)c3ncccc23)cc(OC)c1` showed an RP-LC retention time of 876 s.
As for `CCOc1ccc(N(CC)C(=O)C(=O)c2c[nH]c3ccccc23)cc1`, the RP-LC retention time is 852 s.
On to `COc1ccc(C2CC(=O)N(c3cc(C)ccc3C)C(=O)C2)cc1OC`, for which the RP-LC retention time stood at 872 s.
`Cc1c(Cl)cccc1NC(=O)C1CCN(S(=O)(=O)c2ccc3c(c2)NC(=O)C(C)O3)CC1` (stereo not given): the RP-LC retention time amounted to 858 s.
In turn, `CCOC(=O)c1ccsc1NC(=O)c1cc(C)nn1CC` yielded an RP-LC retention time of 1080 s.
In turn, `COc1ccc(-c2nnc(-c3cc(S(=O)(=O)NCc4cccs4)ccc3Cl)o2)cc1` displayed an RP-LC retention time of 1040 s.
The compound `CCN1CCN(C(=O)c2ccc(S(=O)(=O)c3ccccc3)s2)CC1` displayed an RP-LC retention time of 617 s.
Take `O=C(Nc1ccc(Br)cc1)C1CC(=O)N(c2n[nH]c3cccc(F)c23)C1` (stereo not given): the RP-LC retention time is 782 s.
With `CCC(C)C(NC(=O)c1cc(OC)cc(OC)c1)C(=O)Nc1nc2ccccc2[nH]1` (stereo not given), the RP-LC retention time is 769 s.
On to `COc1ccc(N2CCN(C(=O)c3ccc(-c4cccs4)nc3)CC2)cc1`, for which the RP-LC retention time amounted to 852 s.
`O=C(CSc1nnnn1-c1ccccc1)c1ccc(Cl)c(Cl)c1` had an RP-LC retention time of 1060 s.
With `CC(C)CCN1CCC(N(C(=O)NCCc2ccccc2)C2CCOCC2)CC1`, the RP-LC retention time turned out to be 700 s.
For the compound `Cc1cc2c(=O)n(CC(=O)NCc3ccc(F)cc3)c3cccnc3n2n1`, the RP-LC retention time stood at 693 s.
Regarding `CCOC(=O)c1ccc(NC(=O)c2c(OCC)cc(=O)n3c2CCCC3)cc1`, the RP-LC retention time is 770 s.
As to `O=c1n(CCOc2ccccc2)nc2ccc(S(=O)(=O)N3CCCCC3)cn12`, the RP-LC retention time worked out at 922 s.
`CCC(=O)Nc1ccc(C2(C(=O)N3CCN(c4ccccc4)CC3)CCC2)cc1`: the RP-LC retention time came to 861 s.
To `COc1ccc(C2(C(=O)Nc3cc(-c4cccs4)no3)CC2)cc1` belongs 1060 s; to `Cc1cc(F)ccc1NC(=O)Cn1c(=O)cc(-c2nc(C(C)C)no2)c2ccccc21`, 996 s.
In turn, `COc1ccc(-c2cn3c(CC(=O)N(Cc4cccs4)C4CCCCC4)csc3n2)cc1OC` gave an RP-LC retention time of 931 s.
Take `COc1ccc(S(=O)(=O)N2CCCC(Cn3c(C)nc4cccnc43)C2)cc1` (stereo not given): the RP-LC retention time amounted to 688 s.
Compound `O=c1ccc(-c2cccc(Cl)c2)nn1CCc1nc(-c2cccnc2)no1` came in with an RP-LC retention time of 805 s.
As for `O=C(C1CCCO1)N1CCN(c2ccc(-n3cccn3)nn2)CC1` (stereo not given), the RP-LC retention time amounted to 586 s.
With `O=C1COc2ccccc2N1Cc1nc(-c2cccc(Cl)c2)no1` the figure was 1060 s.
`COc1ccc(N2CC(c3nc(-c4ccccc4F)no3)CC2=O)c(OC)c1` (stereo not given) gave an RP-LC retention time of 863 s.
To `CCCNC(=O)N1CCC(c2nc(-c3ccncc3)no2)C1` (stereo not given) belongs 604 s.
Consider `Cc1ccc(F)c(NS(=O)(=O)c2cc(-c3nc(C(C)(C)C)cs3)cs2)c1`, for which the RP-LC retention time was 1260 s.
Turning to `CN(C)CCCNC(=O)C1CCCN(c2cnc3nccnc3c2)C1` (stereo not given), the RP-LC retention time worked out at 562 s.
On to `COc1cccc(NC(=O)NCc2cc(C)oc2C)c1OC`, for which the RP-LC retention time is 815 s.
To `O=C(CN1CCCCCC1)N1CCC2(CCC2O)CC1` (stereo not given) belongs 555 s; to `Cc1cccc2c(=O)n(C3CCN(S(=O)(=O)c4cc(F)cc(F)c4)CC3)cnc12`, 1000 s; to `CC(C)(C)c1csc(-c2csc(S(=O)(=O)NC3CCCCC3)c2)n1`, 1320 s.
`O=C(CSc1ccc(F)cc1)Nc1ccc2c(c1)CC(=O)N2` gave an RP-LC retention time of 646 s.
`CS(=O)(=O)N1CCC(C(=O)Nc2ccc(C(F)(F)F)cc2)Oc2ccccc21` (stereo not given) came in with an RP-LC retention time of 1030 s.
With `COC(=O)c1c(C)[nH]c(C(=O)N2CCCC(C(=O)N3CCCC3)C2)c1C` (stereo not given) the figure was 663 s.
To `Cc1nnc(NC(=O)CSCc2ccco2)s1` belongs 632 s.
`COc1ccc(C(=O)c2cn(CC(=O)c3ccc(Cl)cc3)c3nc(C)ccc3c2=O)cc1` gave an RP-LC retention time of 1010 s.
`Cc1ccc(CNC(=O)C2CCN(c3nccnc3Sc3ccccc3)CC2)o1` yielded an RP-LC retention time of 958 s.
The compound `CCc1ccc(N2CC(c3noc(-c4ccc(-c5ccccc5)cc4)n3)CC2=O)cc1` (stereo not given) gave an RP-LC retention time of 1340 s.
As for `C[C@H]1CC[C@]2(NC1)O[C@H]1C[C@H]3[C@@H]4CC[C@H]5C[C@@H](O)CC[C@]5(C)[C@H]4CC[C@]3(C)[C@H]1[C@@H]2C`, the RP-LC retention time came to 776 s.
The compound `O=C(Nc1nccs1)C1CCN(C(=O)c2ccc[nH]c2=O)CC1` gave an RP-LC retention time of 558 s.
`Cc1cc(NC(=O)CSc2cn(Cc3cccc(F)c3)c3ccccc23)no1` returned an RP-LC retention time of 951 s.
In turn, `Nc1cc(C2CCN(S(=O)(=O)c3cccc4cccnc34)CC2)no1` had an RP-LC retention time of 702 s.
`COc1ccc(N2CCN(C(=O)C3CCN(c4nc(NC(C)=O)ns4)CC3)CC2)cc1` had an RP-LC retention time of 618 s.
In turn, `O=C(Nc1ccc2c(c1)OCCO2)C1CC(=O)N(CCc2c[nH]c3ccc(Cl)cc23)C1` (stereo not given) yielded an RP-LC retention time of 827 s.
`NC(=O)COC1CCC12CCN(C(=O)C1CCCCC1)CC2` (stereo not given) returned an RP-LC retention time of 715 s.
Compound `O=C(COc1ccc(F)cc1)NCC(=O)N1CCCc2ccccc21` registered an RP-LC retention time of 850 s.
The compound `CCOc1cccc(CNC(=O)c2ccc3c(=O)n(Cc4ccccc4)c(N(CC)CC)nc3c2)c1` had an RP-LC retention time of 1170 s.
Regarding `COc1ccc(CC(=O)NC(C(=O)Nc2nc3ccccc3[nH]2)C(C)C)cc1Cl` (stereo not given), the RP-LC retention time turned out to be 733 s.
With `Cc1cccc(S(=O)(=O)N2Cc3ccccc3CC2C(=O)NCc2ccco2)c1` (stereo not given) the figure was 1000 s.
`Cc1ccc(Sc2ccccc2N2CCNCC2)c(C)c1` had an RP-LC retention time of 869 s.
`O=S(=O)(c1ccc2c(c1)CCCC2)N1CCN(Cc2nnnn2-c2ccccc2)CC1` displayed an RP-LC retention time of 991 s.
To `COc1ccc2c(c1)C1(CCN(C(=O)NC(C)(C)C)C1)C(=O)N2C` (stereo not given) belongs 753 s.
Take `Cc1cc(Cl)ccc1OCc1nc(-c2ccc(NS(=O)(=O)c3cccs3)cc2)no1`: the RP-LC retention time was 1180 s.
`Cc1ccc(NC(=O)c2c(O)c3cccnc3n(-c3ccc(F)cc3)c2=O)cc1F` returned an RP-LC retention time of 1340 s.
For `COc1ccc(C(=O)N2CCCC2c2nc(-c3ccc(OC)c(OC)c3)no2)c(OC)c1` (stereo not given), the RP-LC retention time was 866 s.
The compound `Cc1ccc(C)c(NC(=O)N2CCCC(Cn3cnc4cccnc43)C2)c1` (stereo not given) returned an RP-LC retention time of 676 s.
`CCCCOC(=O)c1ccc(NC(=O)c2ccc(N3CCCCS3(=O)=O)cc2)cc1` registered an RP-LC retention time of 976 s.
As for `CC(C)(C)NC(=O)N1CCC(CNC(=O)C(=O)Nc2cccc(N3CCCC3=O)c2)CC1`, the RP-LC retention time came out at 683 s.
`COc1ccc(N2CCN(C(=O)Cn3ncc4c(c3=O)N(C)C(=O)CS4)CC2)cc1` yielded an RP-LC retention time of 635 s.
To `CCOc1coc(C(=O)NCCc2ccc(Cl)cc2)cc1=O` belongs 706 s; to `Cc1ccc(NC(=O)N2C[C@@H](F)C[C@H]2C(=O)N2CCCCC2)c(Cl)c1`, 779 s; to `CCOC(=O)c1noc2ncnc(NCc3ccc(OC)cc3)c12`, 938 s.
As for `O=C(Cc1ccc(F)cc1)N1CCN(CC(O)c2cccs2)CC1` (stereo not given), the RP-LC retention time turned out to be 569 s.
In turn, `Cc1ccc2c(c1)N(S(C)(=O)=O)CCC(C(=O)Nc1ccc(Br)c(C)c1)O2` (stereo not given) returned an RP-LC retention time of 1090 s.
For the compound `COc1ccc(-c2cc3c4nn(CC(=O)NC(C)C)c(=O)n4ccn3n2)cc1`, the RP-LC retention time came out at 758 s.
Compound `O=C(Nc1ccc(Cl)cc1)C1CCCN(S(=O)(=O)c2c[nH]c(C(=O)N3CCCCCC3)c2)C1` (stereo not given) gave an RP-LC retention time of 959 s.
`O=C(CCc1c(-c2ccc(Br)cc2)nc2ccccn12)Nc1ccc(F)c(F)c1` had an RP-LC retention time of 727 s.
The compound `CC1CCCN(CC2CCN(S(=O)(=O)Cc3ccccc3Cl)CC2)C1` (stereo not given) had an RP-LC retention time of 662 s.
Compound `Cc1nn(CC(=O)NCc2ccco2)c(=O)c2nn(-c3ccccc3)c(C)c12` came in with an RP-LC retention time of 732 s.
On to `CCn1ccc2sc(C)c(C(=O)NCc3ccco3)c2c1=O`, for which the RP-LC retention time worked out at 723 s.
To `COc1ccccc1OCCNS(=O)(=O)c1cc2n(c1)CCCNC2=O` belongs 654 s; to `CCCC(=O)Nc1ccc2c(c1)CCC(=O)N2CCOC`, 654 s; to `c1ccc(SCc2nnc3sc(-c4cccnc4)nn23)cc1`, 742 s.
Consider `CCc1nc(-c2ccnc(N3CCOCC3)c2)no1`, for which the RP-LC retention time stood at 678 s.
For `O=C(Nc1cccc(Cl)c1)C1CCCN(c2nc3ccsc3c(=O)n2Cc2ccc(F)cc2)C1` (stereo not given), the RP-LC retention time is 1110 s.
`CCCc1ccc(S(=O)(=O)N2CCC(C)(C(=O)NCc3ccc(F)cc3)CC2)cc1`: the RP-LC retention time came out at 1070 s.
In the case of `Cc1nn(C)cc1S(=O)(=O)Nc1nc2ccc(S(C)(=O)=O)cc2s1`, the RP-LC retention time stood at 581 s.
For `CCCCNC(=O)Cn1c(C(=O)OC)cc2oc3ccccc3c21`, the RP-LC retention time came to 959 s.
Compound `Cc1ccc(NC(=O)C2CCN(S(C)(=O)=O)c3ccccc3O2)cc1Cl` (stereo not given) showed an RP-LC retention time of 985 s.
